Source: US6706293B1, “Pharmaceutical composition capable of regulating the expression of adhesion molecules” (Especialidades Farmaceuticas Centrum, S.A., priority 1999, dated 2004)

Tests used:
Female WISTAR rats = experiment: Anti-inflammatory activity in acute and chronic phase in rats (adjuvant + carrageenin foot volume, method of Mizushima); assay type: in vivo, rat; settings: oral, Phenylbutazone 80 mg/Kg, extract 1.25 g per kg
Protocol: A study of the anti-inflammatory activity has been made in acute and chronic phase in rats. The method used was as described by Mizushima. The reference medicament (Phenylbutizene, dose 80 mg/Kg) and the products of the study (dose equivalent to 1.25 g extract per kg weight of animal) were dissolved in a solution of 1% of CMC (carboxymethylcellulose) in distillated water (w/v) and Tween 80: distillated water (0.2:3.3-v/v), in order to be administrated orally. Six days after inoculation, by intradermal route of 0.1 mL of the complete adjuvant Freund (DIFCO) in the basal part of the tail, was injected 0.1 mL of a suspension of carrageenin type IV 2% (w/v) at the aponeurosis of the left back foot. The volume of the foot of the animal was measured, using a water pletismometer, immediately before the carrageenin injection (basal volume) and afterwards at 3, 5, and 7 hours (acute phase of the inflammation) and at 24, 48, 72, and 96 hours (chronic phase of inflammation). The products of the study, the phenylbutazone, and the carrier were administrated, orally and in portions of 6 animals, 1 hour before the carrageenin injection and at 24, 48 and 72 hours. The percentage of inhibition of the inflammation was calculated by comparing the increase of the volume of the animal foot in respect of its basal volume, for each group of animals and in relation to the control group. The control group was given the carrier of phenylbutazone and the products of the study. The statistical significance was evaluated via the T Student test.

CD54 = experiment: In vitro expression of adhesion molecules in peripheral blood mononuclear cells (flow cytometry); assay type: cell-based, human; settings: PBMNc of 10 healthy individuals, 48 hours culture; PHA 10 μg/ml, Anapsos 150 μg/ml; CONTROL 2%
Protocol: (§1) Peripheral blood was extracted from 10 healthy individuals and the mononuclear cells was separated via Fycoll-Hypaque density gradient centrifugation. The cells was cultivated in plane bottom microtiter plates, at a titer of 1 million/ml for 48 hours in a CO2 incubator, with phytohaemagglutinin (PHA) at concentrations of 0, 0.5, 2, 5 and 10 μg/ml and/or with Anapsos at concentrations between 0 to 5000 μg/ml. Finalized the culturing, the lymphocytes was analyzed by flow cytometry. The expression of determined adhesion molecules (CD11a, CD11b, CD18, CD54) was studied in relation to the different conditions of stimuli. En parallel to the culture as described above, a culture for 5 days was made under the same conditions of stimuli as above. Tritium thymidine was added 16 hours before finalizing the culture. Terminated the culture, the cells was washed with the Harvester and flashing liquid was incorporated into the cells. The cellular incorporation of tritium thymidine was measured via a β counter. During the culturing, the cells were photographed via an inverted microscope.

CD11a = experiment: as above; assay type: cell-based, human; settings: PBMNc of 10 healthy individuals, 48 hours culture; PHA 10 μg/ml, Anapsos 150 μg/ml; CONTROL 17%
Protocol: as §1

CD11b = experiment: as above; assay type: cell-based, human; settings: PBMNc of 10 healthy individuals, 48 hours culture; PHA 10 μg/ml, Anapsos 150 μg/ml; CONTROL 20%
Protocol: as §1

CD18 = experiment: as above; assay type: cell-based, human; settings: PBMNc of 10 healthy individuals, 48 hours culture; PHA 10 μg/ml, Anapsos 150 μg/ml; CONTROL 20%
Protocol: as §1

Compound	% INHIBITION OF THE INFLAMMATION 3 h (Female WISTAR rats; 3 h after carrageenin (acute phase)) [%]	% INHIBITION OF THE INFLAMMATION 5 h (Female WISTAR rats; 5 h after carrageenin (acute phase)) [%]	% INHIBITION OF THE INFLAMMATION 7 h (Female WISTAR rats; 7 h after carrageenin (acute phase)) [%]	% INHIBITION OF THE INFLAMMATION 24 h (Female WISTAR rats; 24 h after carrageenin (chronic phase)) [%]	% INHIBITION OF THE INFLAMMATION 48 h (Female WISTAR rats; 48 h after carrageenin (chronic phase)) [%]	% INHIBITION OF THE INFLAMMATION 72 h (Female WISTAR rats; 72 h after carrageenin (chronic phase)) [%]	% INHIBITION OF THE INFLAMMATION 96 h (Female WISTAR rats; 96 h after carrageenin (chronic phase)) [%]	Expression, in vitro, of CD54 (CD54) [%]	Expression, in vitro, of CD11a (CD11a) [%]	Expression, in vitro, of CD11b (CD11b) [%]	Expression, in vitro, of CD18 (CD18) [%]
CCCCC1C(=O)N(c2ccccc2)N(c2ccccc2)C1=O [Phenylbutazone]	41	27	21	36	60	56	40	–	–	–	–
phytohaemagglutinin [PHA]	–	–	–	–	–	–	–	9	22	35	27
